Data on 25 compounds can be found in patent US20260224571A1, “AZACYCLOALKANE COMPOUND AND PHARMACEUTICAL COMPOSITION, AND USE THEREOF” (Prime Gene Therapeutics Co., Ltd., priority 2023, published 2026).

One test concerns the target ROCK1 (Homo sapiens, UniProt Q13464). Put plainly: ROCK1 kinase enzymatic activity (HTRF, STK2 substrate). Particulars: ROCK1 kinase reacted at room temperature for 20 minutes. The class given is biochemical. The text has this: (§1) The kinase activity data was expressed by comparing the kinase activity of the test compound and that of the blank group (containing only DMSO), and the IC50 value was obtained by curve fitting using Prism software (GraphPad7.0).

The target of another test is ROCK2 (Homo sapiens, UniProt O75116). Put plainly: ROCK2 kinase enzymatic activity (HTRF, STK2 substrate). The class given is biochemical. Particulars: ROCK2 kinase reacted at room temperature for 30 minutes.
Excerpt: as §1

The subject of test [1] is phosphorylation of myosin light chain T18/S19. Put plainly: In Cell Western for phosphorylation of myosin light chain in A7r5 cells. It counts as cell-based. Particulars: rat smooth muscle cell line A7r5, 1 hour with compound, phospho-MLC-T18/S19; read-out: cellular activity IC50. The text has this: The rat smooth muscle cell line A7r5 was used, and the A7r5 cell culture conditions were DMEM containing 10% FBS. Phspho-MLC-T18/S19 specific antibody and a second detection antibody were used to detect the phosphorylation level of myosin light chain by In Cell Western. Cells treated with positive compounds were used as positive controls, while the group without compounds but with compound solvents was used as negative controls. DRAQ5 stained cell nuclei were used as internal references. GraphPad Prism 7.0 software was used, and fitting was carried out by using a non-linear regression curve with varying slopes to determine the absolute IC50 value.
On the first day, A7r5 cells were resuspended in serum-free medium and seeded into 384 wells of PDL coated transparent black plates at a density of 5000 cells per well. Serum starvation culture was performed for 4 hours, and the cells were incubated with the compound in serum-free medium for 1 hour. 50 μL of 8% PFA (polyformaldehyde) was added to each well and fixed at room temperature for 1 hour. The liquid in the wells was discard and 90 μL of ice methanol was added to each well to permeabilize the cells at 4° C. for 1 hour. Then, PBST (0.1% Tween20-PBS) was added using an automatic separator to wash three times. After patting the plate for drying, 50 μL blocking solution was added to each well for sealing at room temperature for 1 hour. The phspho-MLC-T18/S19 specific antibody was diluted with the blocking solution at a ratio of 1:200. After adding 20 μL to each well, incubation was carried out overnight at 4° C. with a sealed film.
On the second day, the liquid in the wells was discarded and PBST was added using an automatic separator to wash the plate 5 times. After patting the plate for drying, the second detection antibody was diluted with blocking solution at a ratio of 1:800 and DRAQ5 at a ratio of 1:1000. After adding 20 μL to each well, incubation was carried out at room temperature for 1 hour. Then, the liquid in the wells was discarded and PBST was added using an automatic separator to wash the plate 3 times, followed by adding ddH2O to wash the plate 3 times. After patting the plate for drying, it was scanned using a LICOR Odyssey near-infrared imaging scanner.

ROCK1, sequence (Q13464 whole entry): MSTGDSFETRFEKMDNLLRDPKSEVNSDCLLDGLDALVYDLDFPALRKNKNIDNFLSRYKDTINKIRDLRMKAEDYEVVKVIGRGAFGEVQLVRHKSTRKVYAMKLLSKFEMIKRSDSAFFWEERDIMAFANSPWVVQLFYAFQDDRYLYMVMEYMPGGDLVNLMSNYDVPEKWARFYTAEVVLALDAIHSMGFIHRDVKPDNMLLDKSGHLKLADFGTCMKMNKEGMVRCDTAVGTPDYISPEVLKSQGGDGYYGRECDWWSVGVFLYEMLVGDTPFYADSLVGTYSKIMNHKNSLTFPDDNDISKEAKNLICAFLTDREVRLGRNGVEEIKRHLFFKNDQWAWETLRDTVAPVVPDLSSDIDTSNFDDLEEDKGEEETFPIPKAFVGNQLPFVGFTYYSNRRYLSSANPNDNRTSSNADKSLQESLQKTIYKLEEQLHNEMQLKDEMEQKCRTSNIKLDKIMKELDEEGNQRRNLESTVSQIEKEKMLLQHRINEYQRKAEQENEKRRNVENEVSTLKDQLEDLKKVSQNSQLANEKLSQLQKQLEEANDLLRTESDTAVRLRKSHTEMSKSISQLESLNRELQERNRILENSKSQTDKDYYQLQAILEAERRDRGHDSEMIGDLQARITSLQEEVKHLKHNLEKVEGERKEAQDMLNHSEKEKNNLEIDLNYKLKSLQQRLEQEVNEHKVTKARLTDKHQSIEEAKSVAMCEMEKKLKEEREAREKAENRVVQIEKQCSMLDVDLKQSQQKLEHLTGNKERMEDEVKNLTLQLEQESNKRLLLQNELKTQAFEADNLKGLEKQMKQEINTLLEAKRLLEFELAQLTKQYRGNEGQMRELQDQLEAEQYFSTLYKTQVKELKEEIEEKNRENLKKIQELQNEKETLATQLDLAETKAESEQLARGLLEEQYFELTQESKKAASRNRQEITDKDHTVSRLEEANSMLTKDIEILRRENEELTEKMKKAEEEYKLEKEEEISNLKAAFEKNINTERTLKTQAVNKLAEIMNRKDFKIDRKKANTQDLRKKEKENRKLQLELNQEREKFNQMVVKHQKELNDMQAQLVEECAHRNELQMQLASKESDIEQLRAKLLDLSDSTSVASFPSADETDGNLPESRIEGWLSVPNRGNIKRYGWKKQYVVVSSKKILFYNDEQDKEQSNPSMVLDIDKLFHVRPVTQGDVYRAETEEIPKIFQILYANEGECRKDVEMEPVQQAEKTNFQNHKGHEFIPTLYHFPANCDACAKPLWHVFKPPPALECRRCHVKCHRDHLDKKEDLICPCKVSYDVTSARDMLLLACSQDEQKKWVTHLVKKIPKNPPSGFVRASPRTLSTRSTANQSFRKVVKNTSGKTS
ROCK2, sequence (O75116 whole entry): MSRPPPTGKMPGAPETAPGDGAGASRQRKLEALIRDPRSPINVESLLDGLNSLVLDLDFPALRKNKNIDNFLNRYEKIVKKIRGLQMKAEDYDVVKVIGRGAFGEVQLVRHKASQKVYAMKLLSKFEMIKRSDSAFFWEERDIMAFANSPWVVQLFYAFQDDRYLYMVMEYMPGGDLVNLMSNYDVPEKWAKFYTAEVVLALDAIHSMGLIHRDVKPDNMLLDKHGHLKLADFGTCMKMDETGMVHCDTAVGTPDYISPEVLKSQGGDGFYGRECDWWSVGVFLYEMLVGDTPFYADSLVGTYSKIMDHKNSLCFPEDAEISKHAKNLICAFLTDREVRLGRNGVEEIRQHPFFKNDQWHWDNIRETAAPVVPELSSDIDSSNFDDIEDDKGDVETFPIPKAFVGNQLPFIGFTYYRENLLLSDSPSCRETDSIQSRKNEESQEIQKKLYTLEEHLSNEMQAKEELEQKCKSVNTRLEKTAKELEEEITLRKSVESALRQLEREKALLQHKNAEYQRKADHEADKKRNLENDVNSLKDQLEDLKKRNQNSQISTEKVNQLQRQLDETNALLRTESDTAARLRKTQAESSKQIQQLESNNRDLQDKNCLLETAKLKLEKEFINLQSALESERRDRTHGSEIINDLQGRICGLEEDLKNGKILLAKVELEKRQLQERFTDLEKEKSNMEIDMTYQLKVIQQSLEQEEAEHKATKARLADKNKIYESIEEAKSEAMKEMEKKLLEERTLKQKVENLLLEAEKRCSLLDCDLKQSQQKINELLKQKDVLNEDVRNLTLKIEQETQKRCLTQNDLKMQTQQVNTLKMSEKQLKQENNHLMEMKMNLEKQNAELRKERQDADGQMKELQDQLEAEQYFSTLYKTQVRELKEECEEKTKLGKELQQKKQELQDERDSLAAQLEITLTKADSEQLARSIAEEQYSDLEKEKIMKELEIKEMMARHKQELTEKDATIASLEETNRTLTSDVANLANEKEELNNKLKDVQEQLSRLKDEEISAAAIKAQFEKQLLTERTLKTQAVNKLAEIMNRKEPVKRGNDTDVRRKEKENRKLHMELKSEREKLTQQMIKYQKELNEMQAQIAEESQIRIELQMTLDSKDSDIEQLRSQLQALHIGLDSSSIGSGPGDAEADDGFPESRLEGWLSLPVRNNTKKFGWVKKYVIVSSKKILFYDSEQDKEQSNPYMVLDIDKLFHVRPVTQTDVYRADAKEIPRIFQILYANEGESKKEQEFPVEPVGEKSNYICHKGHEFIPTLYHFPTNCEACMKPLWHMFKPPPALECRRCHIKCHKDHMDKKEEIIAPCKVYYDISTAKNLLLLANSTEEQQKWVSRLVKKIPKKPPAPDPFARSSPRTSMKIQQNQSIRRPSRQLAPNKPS

For orientation: IC50 means the concentration that gives 50% inhibition. Take `N#CCC1(n2cc(-c3ncnc4[nH]ccc34)c(N)n2)CN(S(=O)(=O)CC(F)(F)F)C1` [Example 1, 2-(3-(3-amino-4-(7-H-pyrrolo[2,3-d]pyrimidin-4-yl)-1H-pyrazol-1-yl)-1-((2,2,2-trifluoroethyl)sulfonyl)azetidine-3-yl)acetonitrile]: the IC50 at ROCK1 is less than 10 nM; against ROCK2, less than 10 nM; in test [1], 5010 nM.
Take `N#CCC1(n2cc(-c3ncnc4[nH]ccc34)c(N)n2)CN(S(=O)(=O)C(F)(F)F)C1` [Example 2, 2-(3-(3-amino-4-(7H-pyrrolo[2,3-d]pyrimidin-4-yl)-1H-pyrazol-1-yl)-1-((trifluoromethyl)sulfonyl)azetidine-3-yl)acetonitrile]: the IC50 was less than 5 nM against ROCK1, less than 5 nM at ROCK2 and 11 nM in test [1].
As to `CS(=O)(=O)N1CCC(CC#N)(n2cc(-c3ncnc4[nH]ccc34)c(N)n2)C1` (stereo not drawn) [Example 3, 2-(3-(3-amino-4-(7H-pyrrolo[2,3-d]pyrimidin-4-yl)-1H-pyrazol-1-yl)-1-(methylsulfonyl)pyrrolidin-3-yl)acetonitrile], the IC50 at ROCK1 was less than 5 nM; against ROCK2, less than 5 nM; in test [1], 178 nM.
For `CC(=O)Nc1nn(C2(CC#N)CN(S(=O)(=O)C(F)(F)F)C2)cc1-c1ncnc2[nH]ccc12` [Example 5], the IC50 is less than 5 nM at ROCK1, less than 5 nM on ROCK2 and 951 nM in test [1].
In the case of `CCNc1nn(C2(CC#N)CN(S(=O)(=O)C(F)(F)F)C2)cc1-c1ncnc2[nH]ccc12` [Example 6, 2-(3-(3-(ethylamino)-4-(7H-pyrrolo[2,3-d]pyrimidin-4-yl)-1H-pyrazol-1-yl)-1-((trifluoromethyl)sulfonyl)azetidine-3-yl)acetonitrile], the IC50 on ROCK1 is less than 5 nM; at ROCK2, less than 5 nM; in test [1] it was 181 nM.
For `CN(C)CCNc1nn(C2(CC#N)CN(S(=O)(=O)C(F)(F)F)C2)cc1-c1ncnc2[nH]ccc12` [Example 7, 2-(3-(3-((2-(dimethylamino)ethyl)amino)-4-(7H-pyrrolo[2,3-d]pyrimidin-4-yl)-1H-pyrazol-1-yl)-1-((trifluoromethyl)sulfonyl)azetidine-3-yl)acetonitrile], the IC50 at ROCK1 was less than 5 nM; against ROCK2, less than 5 nM; in test [1], 132 nM.
With `CS(=O)(=O)CS(=O)(=O)N1CC(CC#N)(n2cc(-c3ncnc4[nH]ccc34)c(N)n2)C1` [Example 8], the IC50 against ROCK1 is less than 5 nM; at ROCK2, less than 5 nM; in test [1] it was 152 nM.
For the compound `N#CCNC(=O)N1CC(CC#N)(n2cc(-c3ncnc4[nH]ccc34)c(N)n2)C1` [Example 18, 3-(3-amino-4-(7H-pyrrolo[2,3-d]pyrimidin-4-yl)-1H-pyrazol-1-yl)-N,3-bis(cyanomethyl)azetidine-1-formamide], the 50% inhibitory concentration (IC50) on ROCK1 is less than 5 nM; against ROCK2, less than 5 nM; in test [1], 4110 nM.
Consider `CS(=O)(=O)N1CC(CC#N)(n2cc(-c3ncnc(NCCO)n3)c(N)n2)C1` [Example 70, 2-(3-(3-amino-4-(4-((2-hydroxyethyl)amino)-1,3,5-triazin-2-yl)-1H-pyrazol-1-yl)-1-(methylsulfonyl)azetidine-3-yl)acetonitrile], for which the IC50 against ROCK1 and against ROCK2 was more than 100 nM in each case.
For the compound `CN1CCC(Nc2ncnc(-c3cn(C4(CC#N)CN(S(C)(=O)=O)C4)nc3N)n2)CC1` [Example 71, 2-(3-(3-amino-4-(4-((1-methylpiperidin-4-yl)amino)-1,3,5-triazin-2-yl)-1H-pyrazol-1-yl)-1-(methylsulfonyl)azetidine-3-yl)acetonitrile], the IC50 on ROCK1 and on ROCK2 was more than 100 nM each time.
For the compound `CS(=O)(=O)N1CC(CC#N)(n2cc(-c3ncnc(NC4CCOCC4)n3)c(N)n2)C1` [Example 72, 2-(3-(3-amino-4-(4-((tetrahydro-2H-pyran-4-yl)amino)-1,3,5-triazin-2-yl)-1H-pyrazol-1-yl)-1-(methylsulfonyl)azetidine-3-yl)acetonitrile], the IC50 at ROCK1 and against ROCK2 was more than 100 nM in each case.
Regarding `CS(=O)(=O)N1CC(CC#N)(n2cc(-c3ncnc(NCC4CCOCC4)n3)c(N)n2)C1` [Example 73], the IC50 against ROCK1 and on ROCK2 was more than 100 nM in each case.
Turning to `CS(=O)(=O)N1CC(CC#N)(n2cc(-c3cc(NCCO)ncn3)c(N)n2)C1` [Example 74, 2-(3-(3-amino-4-(6-((2-hydroxyethyl)amino)pyrimidin-4-yl)-1H-pyrazol-1-yl)-1-(methylsulfonyl)azetidine-3-yl)acetonitrile], the IC50 against ROCK1 and against ROCK2 was more than 100 nM each time.
`CS(=O)(=O)N1CC(CC#N)(n2cc(-c3cc(NC4CCOCC4)ncn3)c(N)n2)C1` [Example 75, 2-(3-(3-amino-4-(6-((tetrahydro-2H-pyran-4-yl)amino)pyrimidin-4-yl)-1H-pyrazol-1-yl)-1-(methylsulfonyl)azetidine-3-yl)acetonitrile]: the IC50 on ROCK1 and on ROCK2 was more than 100 nM throughout.
For `CS(=O)(=O)N1CC(CC#N)(n2cc(-c3cc(NCC4CCOCC4)ncn3)c(N)n2)C1` [Example 76, 2-(3-(3-amino-4-(6-((tetrahydro-2H-pyran-4-yl)methyl)amino)pyrimidin-4-yl-1H-pyrazol-1-yl)-1-(methylsulfonyl)azetidine-3-yl)acetonitrile], the IC50 against ROCK1 and against ROCK2 was more than 100 nM throughout.
With `CNc1cc(-c2cn(C3(CC#N)CN(S(C)(=O)=O)C3)nc2N)ncn1` [Example 77, 2-(3-(3-amino-4-(6-(methylamino)pyrimidin-4-yl)-1H-pyrazol-1-yl)-1-(methylsulfonyl)azetidine-3-yl)acetonitrile], the IC50 at ROCK1 and against ROCK2 was more than 100 nM in each case.
`CS(=O)(=O)N1CC(CC#N)(n2cc(-c3ccnc(NCCO)n3)c(N)n2)C1` [Example 78]: the IC50 on ROCK1 and against ROCK2 was more than 100 nM each time.
Turning to `CS(=O)(=O)N1CC(CC#N)(n2cc(-c3ccnc(NCc4ccccc4)n3)c(N)n2)C1` [Example 79, 2-(3-(3-amino-4-(2-(benzylamino)pyrimidin-4-yl)-1H-pyrazol-1-yl)-1-(methylsulfonyl)azetidine-3-yl)acetonitrile], the IC50 against ROCK1 and on ROCK2 was more than 100 nM throughout.
Regarding `CCS(=O)(=O)N1CC(CC#N)(n2cc(-c3cc(-c4cnn(C)c4)nn4ccnc34)c(N)n2)C1` [Example 80], the IC50 against ROCK1 and at ROCK2 was more than 100 nM throughout.
For the compound `CCS(=O)(=O)N1CC(CC#N)(n2cc(-c3cc(-c4cnn(C)c4)cn4ncnc34)c(N)n2)C1` [Example 81], the IC50 on ROCK1 and at ROCK2 was more than 100 nM in each case.
In the case of `CCS(=O)(=O)N1CC(CC#N)(n2cc(-c3cc(Cl)cn4ncnc34)c(N)n2)C1` [Example 83, 2-(3-(3-amino-4-(6-chloro-[1,2,4]triazolo[1,5-a]pyridin-8-yl)-1H-pyrazol-1-yl)-1-(ethylsulfonyl)azetidine-3-yl)acetonitrile], the IC50 at ROCK1 and against ROCK2 was more than 100 nM in each case.
Regarding `CCS(=O)(=O)N1CC(CC#N)(n2cc(-c3cc(Cl)nc4ccnn34)c(N)n2)C1` [Example 84, 2-(3-(3-amino-4-(5-chloropyrazolo[1,5-a]pyrimidin-7-yl)-1H-pyrazol-1-yl)-1-(ethylsulfonyl)azetidine-3-yl)acetonitrile], the IC50 against ROCK1 and at ROCK2 was more than 100 nM throughout.
`CCS(=O)(=O)N1CC(CC#N)(n2cc(-c3cc(NC)nc4ccnn34)c(N)n2)C1` [Example 85, 2-(3-(3-amino-4-(5-(methylamino)pyrazolo[1,5-a]pyrimidin-7-yl)-1H-pyrazol-1-yl)-1-(ethylsulfonyl)azetidine-3-yl)acetonitrile]: the IC50 against ROCK1 and against ROCK2 was more than 100 nM in each case.
`CC(N)CS(=O)(=O)N1CC(CC#N)(n2cc(-c3ncnc4[nH]ccc34)c(N)n2)C1` (stereo not drawn) [Example 86, 2-(3-(3-amino-4-(7H-pyrrolo[2,3-d]pyrimidin-4-yl)-1H-pyrazol-1-yl)-1-((2-aminopropyl)sulfonyl)azetidine-3-yl)acetonitrile]: the IC50 on ROCK1 and at ROCK2 was less than 5 nM in each case.
Consider `Cc1ccc(C(=O)OCc2ccc([C@@H](CN)C(=O)Nc3ccc4cnccc4c3)cc2)c(C)c1` [Netarsudil, reference compound], for which, in test [1], the IC50 turned out to be 288 nM.
